Consider 20 compounds from patent US20080182874A1, “Novel Compounds” (priority 2004, published 2008).

Like-named read-outs stand apart in the source and are kept apart here.

One data set concerns the target T1, P2X7 receptor (Homo sapiens, UniProt Q99572).
T1 construct: 200 μl of a suspension of THP-1 cells (2.5×10^6 cells/ml) containing 10^−4M ethidium bromide; endogenous in cells; host or cells: THP-1 cells
T1 sequence (Q99572 1-595): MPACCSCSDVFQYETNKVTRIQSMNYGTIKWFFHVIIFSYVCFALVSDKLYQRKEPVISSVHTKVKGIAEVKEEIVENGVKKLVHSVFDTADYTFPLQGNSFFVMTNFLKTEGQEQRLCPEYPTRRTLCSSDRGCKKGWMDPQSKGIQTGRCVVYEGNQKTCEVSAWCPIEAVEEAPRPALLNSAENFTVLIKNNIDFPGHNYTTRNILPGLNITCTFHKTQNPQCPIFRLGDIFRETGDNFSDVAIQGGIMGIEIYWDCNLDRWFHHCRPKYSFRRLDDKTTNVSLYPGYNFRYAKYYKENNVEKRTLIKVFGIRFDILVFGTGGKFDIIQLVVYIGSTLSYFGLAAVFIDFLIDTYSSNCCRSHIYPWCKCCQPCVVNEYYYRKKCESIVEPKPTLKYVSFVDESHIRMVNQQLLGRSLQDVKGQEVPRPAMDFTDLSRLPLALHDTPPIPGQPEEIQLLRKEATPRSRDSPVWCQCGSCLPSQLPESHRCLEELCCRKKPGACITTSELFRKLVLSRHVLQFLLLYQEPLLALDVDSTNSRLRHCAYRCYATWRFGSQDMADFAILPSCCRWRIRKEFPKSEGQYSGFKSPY
In words: bbATP-induced ethidium bromide uptake in THP-1 cells (P2X7 antagonist activity). It is filed as cell-based. The text has this: Certain compounds such as benzoylbenzoyl adenosine triphosphate (bbATP) are known to be agonists of the P2X7 receptor, effecting the formation of pores in the plasma membrane (Drug Development Research (1996), 37(3), p. 126). Consequently, when the receptor is activated using bbATP in the presence of ethidium bromide (a fluorescent DNA probe), an increase in the fluorescence of intracellular DNA-bound ethidium bromide is observed. The increase in fluorescence can be used as a measure of P2X7 receptor activation and therefore to quantify the effect of a compound on the P2X7 receptor.
In this manner, each of the title compounds of the Examples was tested for antagonist activity at the P2X7 receptor. […] The plate was covered with a plastics sheet and incubated at 37° C. for one hour. The plate was then read in a Perkin-Elmer fluorescent plate reader, excitation 520 nm, emission 595 nm, slit widths: Ex 15 nm, Em 20 nm. For the purposes of comparison, bbATP (a P2X7 receptor agonist) and pyridoxal 5-phosphate (a P2X7 receptor antagonist) were used separately in the test as controls.

Regarding `O=C(CC12CC3CC(CC(C3)C1)C2)Nc1c(Cl)ccc2nc(N3CCC(C(=O)O)CC3)ccc12` [Example 1, 1-[6-Chloro-5-[(tricyclo[3.3.1.1^3,7]dec-1-ylacetyl)amino]-2-quinolinyl]-4-piperidinecarboxylic acid], the melting point was 240 to 241 °C.

In turn, `O=C(NCC12CC3CC(CC(C3)C1)C2)c1c(Cl)ccc2nc(N3CCC[C@@H]3C(=O)O)ccc12` [Example 2, 1-[6-Chloro-5-[[(tricyclo[3.3.1.1^3,7]dec-1-ylmethyl)amino]carbonyl]-2-quinolinyl]-D-proline] returned a melting point of 157 to 160 °C.

`O=C(NCC12CC3CC(CC(C3)C1)C2)c1c(Cl)ccc2nc(N3CCC[C@@H](C(=O)O)C3)ccc12` [Example 3, 1-[6-Chloro-5-[[(tricyclo[3.3.1.1^3,7]dec-1-ylmethyl)amino]carbonyl]-2-quinolinyl]-(3R)-3-piperidinecarboxylic acid] yielded a melting point of 257 to 262 °C. On P2X7 receptor, this compound gave an IC50 of 79.4 nM.

Compound `O=C(NCC12CC3CC(CC(C3)C1)C2)c1c(Cl)ccc2nc(N3CCC(n4cn[nH]c4=O)CC3)ccc12` [Example 4, 6-Chloro-2-[4-(1,5-dihydro-5-oxo-4H-1,2,4-triazol-4-yl)-1-piperidinyl]-N-(tricyclo[3.3.1.1^3,7]dec-1-ylmethyl)-5-quinolinecarboxamide] came in with a melting point of 294 to 295 °C.

For `O=C(O)CN1CCN(c2ccc3c(C(=O)NCC45CC6CC(CC(C6)C4)C5)c(Cl)ccc3n2)CC1` [Example 5, 4-[6-Chloro-5-[[(tricyclo[3.3.1.1^3,7]dec-1-ylmethyl)amino]carbonyl]-2-quinolinyl]-1-piperazineacetic acid], the melting point lay in the range of 179 to 183 °C.

For the compound `O=C(NCC12CC3CC(CC(C3)C1)C2)c1c(Cl)ccc2nc(N3CC[C@H](NCCc4nnn[nH]4)C3)ccc12` [Example 6, 6-Chloro-2-[(3S)-3-[[2-(2H-tetrazol-5-yl)ethyl]amino]-1-pyrrolidinyl]-N-(tricyclo[3.3.1.1^3,7]dec-1-ylmethyl)-5-quinolinecarboxamide], the melting point fell in the range of 174 to 177 °C.

As to `O=C(NCC12CC3CC(CC(C3)C1)C2)c1c(Cl)ccc2nc(N3CCC(C(=O)O)CC3)ccc12` [Example 7, 1-[6-Chloro-5-[[(tricyclo[3.3.1.1^3,7]dec-1-ylmethyl)amino]carbonyl]-2-quinolinyl]-4-piperidinecarboxylic acid], the melting point lay within 231 to 235 °C.

`O=C(O)CC1CCN(c2ccc3c(C(=O)NCC45CC6CC(CC(C6)C4)C5)c(Cl)ccc3n2)CC1` [Example 8, 1-[6-Chloro-5-[[(tricyclo[3.3.1.1^3,7]dec-1-ylmethyl)amino]carbonyl]-2-quinolinyl]-4-piperidineacetic acid] came in with a melting point of 212 to 214 °C.

Regarding `O=C(NCC12CC3CC(CC(C3)C1)C2)c1c(Cl)ccc2nc(CCCCc3nnn[nH]3)ccc12` [Example 9, 6-Chloro-2-[4-(2H-tetrazol-5-yl)butyl]-N-(tricyclo[3.3.1.1^3,7]dec-1-ylmethyl)-5-quinolinecarboxamide], the melting point came to 221 °C.

Take `O=C(O)CCN[C@H]1CCCN(c2ccc3c(C(=O)NCC45CC6CC(CC(C6)C4)C5)c(Cl)ccc3n2)C1` [Example 12, N-[(3S)-1-[6-Chloro-5-[[(tricyclo[3.3.1.1^3,7]dec-1-ylmethyl)amino]carbonyl]-2-quinolinyl]-3-piperidinyl]-β-alanine]: the melting point was in the range of 176 to 189 °C. At P2X7 receptor, the IC50 is 15.8 nM.

Turning to `O=C(NCC12CC3CC(CC(C3)C1)C2)c1c(Cl)ccc2nc(N3CCC(O)(C(=O)O)CC3)ccc12` [Example 17, 1-[6-Chloro-5-[[(tricyclo[3.3.1.1^3,7]dec-1-ylmethyl)amino]carbonyl]-2-quinolinyl]-4-hydroxy-4-piperidinecarboxylic acid], the melting point was 200 to 204 °C.

In the case of `O=C(NCC12CC3CC(CC(C3)C1)C2)c1c(Cl)ccc2nc(N3CCC(C(=O)O)(c4ccccc4)CC3)ccc12` [Example 18, 1-[6-Chloro-5-[[(tricyclo[3.3.1.1^3,7]dec-1-ylmethyl)amino]carbonyl]-2-quinolinyl]-4-phenyl-4-piperidinecarboxylic acid], the melting point lay in the range of 235 to 237 °C.

`O=C(NCC12CC3CC(CC(C3)C1)C2)c1c(Cl)ccc2nc(N3C[C@@H]4[C@H](C3)[C@H]4C(=O)O)ccc12` [Example 19, (1R,5S)-3-[6-Chloro-5-[[(tricyclo[3.3.1.1^3,7]dec-1-ylmethyl)amino]carbonyl]-2-quinolinyl]-3-azabicyclo[3.1.0]hexane-6-carboxylic acid] displayed a melting point of 175 to 180 °C.

`CS(=O)(=O)NC(=O)C1CCN(c2ccc3c(C(=O)NCC45CC6CC(CC(C6)C4)C5)c(Cl)ccc3n2)CC1` [Example 20, 6-Chloro-2-[4-[[(methylsulfonyl)amino]carbonyl]-1-piperidinyl]-N-(tricyclo[3.3.1.1^3,7]dec-1-ylmethyl)-5-quinolinecarboxamide] gave a melting point of 170 to 173 °C.

`O=C(NCC12CC3CC(CC(C3)C1)C2)c1c(Cl)ccc2nc(N3CCC(C(=O)NO)CC3)ccc12` [Example 21, 6-chloro-2-[4-[(hydroxyamino)carbonyl]-1-piperidinyl]-N-(tricyclo[3.3.1.1^3,7]dec-1-ylmethyl)-5-quinolinecarboxamide] registered a melting point of 189 to 196 °C.

Turning to `O=C(O)c1ccccc1-c1ccc2c(C(=O)NCC34CC5CC(CC(C5)C3)C4)c(Cl)ccc2n1` [Example 23, 2-[6-Chloro-5-[[(tricyclo[3.3.1.1^3,7]dec-1-ylmethyl)amino]carbonyl]-2-quinolinyl]-benzoic acid], the melting point was 156 to 158 °C.

With `O=C(O)c1cccc(-c2ccc3c(C(=O)NCC45CC6CC(CC(C6)C4)C5)c(Cl)ccc3n2)c1` [Example 24, 3-[6-Chloro-5-[[(tricyclo[3.3.1.1^3,7]dec-1-ylmethyl)amino]carbonyl]-2-quinolinyl]-benzoic acid], the IC50 on P2X7 receptor (THP-1 cells, 10^-5M bbATP agonist, ethidium bromide fluorescence, 37° C. for one hour, negative logarithm of concentration reducing bbATP agonist activity by 50%, read-out: pIC50 (converted)) was 63.1 nM.

`O=C(O)c1ccc(-c2ccc3c(C(=O)NCC45CC6CC(CC(C6)C4)C5)c(Cl)ccc3n2)cc1` [Example 25, 4-[6-Chloro-5-[[(tricyclo[3.3.1.1^3,7]dec-1-ylmethyl)amino]carbonyl]-2-quinolinyl]-benzoic acid] came in with a melting point of 316 to 317 °C.

Consider `O=C(O)CCNc1ccc2c(C(=O)NCC34CC5CC(CC(C5)C3)C4)c(Cl)ccc2n1` [Example 27, N-[6-Chloro-5-[[(tricyclo[3.3.1.1^3,7]dec-1-ylmethyl)amino]carbonyl]-2-quinolinyl]-β-alanine], for which the melting point lay within 251 to 252 °C.

`O=C(O)c1cncc(-c2ccc3c(C(=O)NCC45CC6CC(CC(C6)C4)C5)c(Cl)ccc3n2)c1` [Example 28, 5-[6-Chloro-5-[[(tricyclo[3.3.1.1^3,7]dec-1-ylmethyl)amino]carbonyl]-2-quinolinyl]-3-pyridinecarboxylic acid]: the melting point turned out to be 247 °C.
